The text below walks through data of ChEMBL document CHEMBL1201862, “PubChem BioAssay data set” (2004).

Active and inactive are the calls of the source. A value given as a limit tells only on which side of the number the result lay.

Assay type in all cases: functional
For assay [1], the target named is T1, Sentrin-specific protease 8 (Homo sapiens, UniProt Q96LD8).
T1 sequence (Q96LD8 whole entry): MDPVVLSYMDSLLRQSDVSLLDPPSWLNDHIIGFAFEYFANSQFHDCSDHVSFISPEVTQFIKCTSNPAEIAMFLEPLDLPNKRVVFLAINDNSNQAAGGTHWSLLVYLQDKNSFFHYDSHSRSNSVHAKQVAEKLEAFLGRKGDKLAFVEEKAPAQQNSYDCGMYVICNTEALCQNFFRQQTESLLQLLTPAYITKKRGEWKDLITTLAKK

The nature of assay [2]: Luminescence Cell-Based Dose Confirmation HTS to Identify Activators of 5'UTR Stem-Loop Driven Alpha-Synuclein mRNA Translation in H4 Neuroglioblastoma Cells. [Related pubchem assays: 1829 (Project Summary), 1814 (Primary HTS)].
Assay [3] concerns the target T1, Sentrin-specific protease 8. The source holds these as a separate data set.
Assay [4] deals with T2, Sentrin-specific protease 6 (Homo sapiens, UniProt Q9GZR1).
T2 sequence (Q9GZR1 whole entry): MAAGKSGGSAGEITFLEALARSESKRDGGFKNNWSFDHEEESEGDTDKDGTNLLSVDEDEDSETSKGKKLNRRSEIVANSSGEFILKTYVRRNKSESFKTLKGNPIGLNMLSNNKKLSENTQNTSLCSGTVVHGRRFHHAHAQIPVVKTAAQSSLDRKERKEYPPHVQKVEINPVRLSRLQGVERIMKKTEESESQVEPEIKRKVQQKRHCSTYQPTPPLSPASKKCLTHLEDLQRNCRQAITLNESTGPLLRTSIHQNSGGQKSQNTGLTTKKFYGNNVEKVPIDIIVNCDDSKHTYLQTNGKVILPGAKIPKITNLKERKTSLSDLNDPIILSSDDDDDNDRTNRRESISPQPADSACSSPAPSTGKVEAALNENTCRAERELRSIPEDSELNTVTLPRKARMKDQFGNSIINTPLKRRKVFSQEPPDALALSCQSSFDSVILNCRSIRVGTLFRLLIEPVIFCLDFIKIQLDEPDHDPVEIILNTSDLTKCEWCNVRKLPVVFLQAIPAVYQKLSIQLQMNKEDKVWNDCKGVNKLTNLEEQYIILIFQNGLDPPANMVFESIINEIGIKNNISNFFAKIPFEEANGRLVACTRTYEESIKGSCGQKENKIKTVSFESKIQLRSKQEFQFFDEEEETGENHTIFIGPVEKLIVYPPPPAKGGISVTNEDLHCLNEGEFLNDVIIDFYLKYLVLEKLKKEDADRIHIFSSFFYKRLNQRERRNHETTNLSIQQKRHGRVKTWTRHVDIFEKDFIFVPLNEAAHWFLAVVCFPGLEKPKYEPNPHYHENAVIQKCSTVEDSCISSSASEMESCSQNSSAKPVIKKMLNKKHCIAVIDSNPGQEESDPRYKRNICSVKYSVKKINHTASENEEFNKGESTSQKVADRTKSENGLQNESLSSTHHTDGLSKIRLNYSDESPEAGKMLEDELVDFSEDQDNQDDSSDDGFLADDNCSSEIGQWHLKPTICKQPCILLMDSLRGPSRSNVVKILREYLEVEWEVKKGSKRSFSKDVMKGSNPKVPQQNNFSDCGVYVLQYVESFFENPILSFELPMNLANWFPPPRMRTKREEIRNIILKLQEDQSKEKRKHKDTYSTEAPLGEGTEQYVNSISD

The target of assay [5] is T1, Sentrin-specific protease 8. This is another data set of the same source.
In assay [6] the target is Serine/threonine-protein kinase Chk2 (Homo sapiens, UniProt O96017).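 Also: CHEK2 entry within a kinome-wide screening panel.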
Assay [7] deals with Maternal embryonic leucine zipper kinase (Homo sapiens, UniProt Q14680).
The target in assay [8] is MAP kinase-activated protein kinase 5 (Homo sapiens, UniProt Q8IW41).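 Also: measured as one member of a kinome panel.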
For assay [9], the target named is Serine/threonine-protein kinase D2 (Homo sapiens, UniProt Q9BZL6).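 Also: measured against PRKD2 as one member of a kinome-wide kinase profiling panel.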
Assay [10] addresses Protein-tyrosine kinase 6 (Homo sapiens, UniProt Q13882).
Assay [11] deals with Non-receptor tyrosine-protein kinase TYK2 (Homo sapiens, UniProt P29597).
Assay [12] deals with Mast/stem cell growth factor receptor Kit (Homo sapiens, UniProt P10721).
Sequence of Mast/stem cell growth factor receptor Kit (P10721 whole entry): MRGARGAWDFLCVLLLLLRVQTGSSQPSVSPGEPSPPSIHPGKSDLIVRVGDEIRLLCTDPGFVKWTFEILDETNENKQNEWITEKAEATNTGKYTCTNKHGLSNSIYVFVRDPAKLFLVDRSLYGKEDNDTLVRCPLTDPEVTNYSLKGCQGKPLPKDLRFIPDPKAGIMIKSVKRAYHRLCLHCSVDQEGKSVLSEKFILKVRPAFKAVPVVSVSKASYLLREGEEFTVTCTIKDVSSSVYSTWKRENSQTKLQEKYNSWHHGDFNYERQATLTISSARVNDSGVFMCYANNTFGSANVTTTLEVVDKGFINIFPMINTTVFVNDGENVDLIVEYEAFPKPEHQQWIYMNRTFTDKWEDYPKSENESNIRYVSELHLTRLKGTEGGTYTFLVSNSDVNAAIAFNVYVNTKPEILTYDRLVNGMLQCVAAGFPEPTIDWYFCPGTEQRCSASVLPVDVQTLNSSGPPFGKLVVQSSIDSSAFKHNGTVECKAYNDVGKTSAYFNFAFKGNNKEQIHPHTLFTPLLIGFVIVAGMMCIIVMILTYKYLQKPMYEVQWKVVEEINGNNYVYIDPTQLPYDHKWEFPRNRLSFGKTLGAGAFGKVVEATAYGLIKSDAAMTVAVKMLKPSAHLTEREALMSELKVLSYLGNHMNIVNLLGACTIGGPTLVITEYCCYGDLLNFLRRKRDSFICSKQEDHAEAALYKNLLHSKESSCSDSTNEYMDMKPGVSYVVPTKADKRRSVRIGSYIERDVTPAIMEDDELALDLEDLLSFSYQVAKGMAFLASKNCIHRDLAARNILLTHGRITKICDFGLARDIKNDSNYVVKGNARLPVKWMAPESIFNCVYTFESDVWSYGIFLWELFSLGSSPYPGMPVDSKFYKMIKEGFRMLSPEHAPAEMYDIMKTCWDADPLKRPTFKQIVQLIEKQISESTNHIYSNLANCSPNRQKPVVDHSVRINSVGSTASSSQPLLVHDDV
Assay [13] concerns the target Tyrosine-protein kinase ABL1 (Homo sapiens, UniProt P00519).
Assay [14] addresses Protein kinase C delta type (Homo sapiens, UniProt Q05655).
A further assay has as its target Misshapen-like kinase 1 (Homo sapiens, UniProt Q8N4C8).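 Also: kinome panel screen with MINK as the panel member.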
Assay [15] has as its target Tyrosine-protein kinase FRK (Homo sapiens, UniProt P42685).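 Also: FRK tested as one member of a kinome panel.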
Assay [16] has as its target Insulin-like growth factor 1 receptor (Homo sapiens, UniProt P08069). The assay is described as follows: Navigating the Kinome. Panel member name: IGF1R.
Assay [17] has as its target Calcium/calmodulin-dependent protein kinase type II subunit gamma (Homo sapiens, UniProt Q13555).
Assay [18] concerns the target Serine/threonine-protein kinase PLK4 (Homo sapiens, UniProt O00444).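 Also: PLK4 measured as one member of a kinome-wide kinase profiling panel.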
The target in assay [19] is Cyclin-dependent kinase 1 (Homo sapiens, UniProt P06493).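 Also: Kinome-wide panel profiling, with the target listed as panel member CDC2.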
The target of assay [20] is Tyrosine-protein kinase Fer (Homo sapiens, UniProt P16591).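 Also: FER tested as one member of a kinome panel.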
The target of assay [21] is Serine/threonine-protein kinase Nek4 (Homo sapiens, UniProt P51957).
Assay [22] has as its target Ribosomal protein S6 kinase beta-1 (Homo sapiens, UniProt P23443).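 Also: measured as one member of a kinome-wide profiling panel.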
Assay [23] has as its target cGMP-dependent protein kinase 1 (Homo sapiens, UniProt Q13976).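 Also: value from a kinome panel screen with PRKG1 as the panel member.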
Assay [24] concerns the target Casein kinase I isoform gamma-1 (Homo sapiens, UniProt Q9HCP0).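 Also: measured as the CSNK1G1 member of a kinome profiling panel.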
Assay [25] has as its target Eukaryotic elongation factor 2 kinase (Homo sapiens, UniProt O00418).
Assay [26] concerns the target Vascular endothelial growth factor receptor 3 (Homo sapiens, UniProt P35916).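 Also: value from a kinome-wide profiling panel, with FLT4 as the panel member.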
Assay [27] deals with Cyclin-dependent kinase 5 (Homo sapiens, UniProt Q00535).
Sequence of Cyclin-dependent kinase 5 (Q00535 whole entry): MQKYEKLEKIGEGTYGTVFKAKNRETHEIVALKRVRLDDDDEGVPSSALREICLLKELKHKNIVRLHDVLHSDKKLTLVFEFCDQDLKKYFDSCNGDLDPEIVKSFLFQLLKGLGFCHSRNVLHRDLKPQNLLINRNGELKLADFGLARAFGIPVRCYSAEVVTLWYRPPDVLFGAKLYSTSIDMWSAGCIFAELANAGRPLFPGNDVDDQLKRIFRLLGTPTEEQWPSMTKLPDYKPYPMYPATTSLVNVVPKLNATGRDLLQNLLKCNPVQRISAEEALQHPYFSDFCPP

Sequence of Ribosomal protein S6 kinase beta-1 (P23443 whole entry): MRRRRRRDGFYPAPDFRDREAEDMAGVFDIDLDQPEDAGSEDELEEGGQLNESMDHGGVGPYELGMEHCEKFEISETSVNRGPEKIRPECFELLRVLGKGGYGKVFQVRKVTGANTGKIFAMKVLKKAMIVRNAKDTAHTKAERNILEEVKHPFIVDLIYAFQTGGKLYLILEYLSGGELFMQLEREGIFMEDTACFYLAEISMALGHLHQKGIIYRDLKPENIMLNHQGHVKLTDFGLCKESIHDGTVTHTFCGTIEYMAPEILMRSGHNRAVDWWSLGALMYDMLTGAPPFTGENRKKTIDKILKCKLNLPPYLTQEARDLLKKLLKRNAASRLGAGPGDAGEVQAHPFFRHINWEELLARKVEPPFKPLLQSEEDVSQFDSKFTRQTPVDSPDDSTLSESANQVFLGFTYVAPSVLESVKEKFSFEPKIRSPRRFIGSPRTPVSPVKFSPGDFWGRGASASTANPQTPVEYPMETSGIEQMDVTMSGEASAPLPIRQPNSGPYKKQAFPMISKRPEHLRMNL
Sequence of Misshapen-like kinase 1 (Q8N4C8 whole entry): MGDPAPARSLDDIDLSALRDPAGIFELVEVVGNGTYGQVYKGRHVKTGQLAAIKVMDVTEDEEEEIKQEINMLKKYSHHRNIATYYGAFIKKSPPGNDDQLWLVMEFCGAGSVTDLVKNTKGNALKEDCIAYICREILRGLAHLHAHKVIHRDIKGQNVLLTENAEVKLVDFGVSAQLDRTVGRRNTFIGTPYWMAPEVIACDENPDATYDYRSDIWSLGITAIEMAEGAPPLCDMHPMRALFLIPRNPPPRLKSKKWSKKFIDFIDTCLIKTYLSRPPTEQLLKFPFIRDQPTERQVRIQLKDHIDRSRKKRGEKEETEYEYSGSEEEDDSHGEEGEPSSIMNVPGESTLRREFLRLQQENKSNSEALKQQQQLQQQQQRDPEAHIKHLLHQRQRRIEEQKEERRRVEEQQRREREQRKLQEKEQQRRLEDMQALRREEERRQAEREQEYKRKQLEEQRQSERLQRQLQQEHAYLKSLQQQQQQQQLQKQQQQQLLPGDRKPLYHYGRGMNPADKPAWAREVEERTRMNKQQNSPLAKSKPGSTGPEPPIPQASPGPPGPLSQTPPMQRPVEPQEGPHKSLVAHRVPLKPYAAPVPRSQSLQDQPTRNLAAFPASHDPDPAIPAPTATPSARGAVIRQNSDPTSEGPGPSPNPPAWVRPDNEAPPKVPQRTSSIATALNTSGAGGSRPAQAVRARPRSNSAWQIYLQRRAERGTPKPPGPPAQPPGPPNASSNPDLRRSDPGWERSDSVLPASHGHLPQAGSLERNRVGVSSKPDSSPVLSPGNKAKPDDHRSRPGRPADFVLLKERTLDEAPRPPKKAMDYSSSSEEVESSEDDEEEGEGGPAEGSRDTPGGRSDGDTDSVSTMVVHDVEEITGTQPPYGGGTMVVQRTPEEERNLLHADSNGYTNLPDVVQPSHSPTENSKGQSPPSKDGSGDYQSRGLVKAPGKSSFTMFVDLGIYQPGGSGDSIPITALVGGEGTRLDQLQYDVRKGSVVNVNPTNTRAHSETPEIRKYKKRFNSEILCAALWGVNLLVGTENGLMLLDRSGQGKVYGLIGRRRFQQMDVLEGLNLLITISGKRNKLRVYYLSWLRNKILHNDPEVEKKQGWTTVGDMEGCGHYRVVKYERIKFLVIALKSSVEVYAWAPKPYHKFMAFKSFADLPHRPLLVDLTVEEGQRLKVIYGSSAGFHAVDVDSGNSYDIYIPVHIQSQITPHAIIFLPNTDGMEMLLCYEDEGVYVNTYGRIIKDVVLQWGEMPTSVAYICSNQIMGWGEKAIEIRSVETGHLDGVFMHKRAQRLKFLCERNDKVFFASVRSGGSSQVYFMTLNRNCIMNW
Sequence of Calcium/calmodulin-dependent protein kinase type II subunit gamma (Q13555 whole entry): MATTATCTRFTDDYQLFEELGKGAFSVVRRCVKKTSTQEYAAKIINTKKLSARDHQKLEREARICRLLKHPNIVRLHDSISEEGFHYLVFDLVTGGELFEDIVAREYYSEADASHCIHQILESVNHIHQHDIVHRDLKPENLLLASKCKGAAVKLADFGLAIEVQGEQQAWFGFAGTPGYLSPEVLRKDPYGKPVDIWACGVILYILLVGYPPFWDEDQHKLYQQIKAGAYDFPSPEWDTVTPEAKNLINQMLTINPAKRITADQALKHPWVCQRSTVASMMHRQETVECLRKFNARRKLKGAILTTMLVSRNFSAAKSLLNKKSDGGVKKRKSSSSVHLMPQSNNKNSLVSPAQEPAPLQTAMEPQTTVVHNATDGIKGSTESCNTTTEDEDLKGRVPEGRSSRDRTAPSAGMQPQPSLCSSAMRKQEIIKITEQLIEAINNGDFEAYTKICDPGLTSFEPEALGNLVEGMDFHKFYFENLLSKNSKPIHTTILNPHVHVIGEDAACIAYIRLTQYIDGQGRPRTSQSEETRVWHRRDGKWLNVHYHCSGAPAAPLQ
Sequence of Casein kinase I isoform gamma-1 (Q9HCP0 whole entry, canonical isoform): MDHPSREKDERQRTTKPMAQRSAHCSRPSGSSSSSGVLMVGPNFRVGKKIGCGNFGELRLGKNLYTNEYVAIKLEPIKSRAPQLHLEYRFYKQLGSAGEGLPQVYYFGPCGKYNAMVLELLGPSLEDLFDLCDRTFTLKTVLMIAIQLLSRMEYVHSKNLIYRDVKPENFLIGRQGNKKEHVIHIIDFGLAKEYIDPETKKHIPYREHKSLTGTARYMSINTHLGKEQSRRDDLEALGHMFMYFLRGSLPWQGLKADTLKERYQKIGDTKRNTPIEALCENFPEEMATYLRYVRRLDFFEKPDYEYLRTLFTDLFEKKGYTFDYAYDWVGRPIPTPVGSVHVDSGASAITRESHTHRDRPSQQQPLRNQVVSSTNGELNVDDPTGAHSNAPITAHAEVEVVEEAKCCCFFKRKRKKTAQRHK
Sequence of Serine/threonine-protein kinase PLK4 (O00444 whole entry): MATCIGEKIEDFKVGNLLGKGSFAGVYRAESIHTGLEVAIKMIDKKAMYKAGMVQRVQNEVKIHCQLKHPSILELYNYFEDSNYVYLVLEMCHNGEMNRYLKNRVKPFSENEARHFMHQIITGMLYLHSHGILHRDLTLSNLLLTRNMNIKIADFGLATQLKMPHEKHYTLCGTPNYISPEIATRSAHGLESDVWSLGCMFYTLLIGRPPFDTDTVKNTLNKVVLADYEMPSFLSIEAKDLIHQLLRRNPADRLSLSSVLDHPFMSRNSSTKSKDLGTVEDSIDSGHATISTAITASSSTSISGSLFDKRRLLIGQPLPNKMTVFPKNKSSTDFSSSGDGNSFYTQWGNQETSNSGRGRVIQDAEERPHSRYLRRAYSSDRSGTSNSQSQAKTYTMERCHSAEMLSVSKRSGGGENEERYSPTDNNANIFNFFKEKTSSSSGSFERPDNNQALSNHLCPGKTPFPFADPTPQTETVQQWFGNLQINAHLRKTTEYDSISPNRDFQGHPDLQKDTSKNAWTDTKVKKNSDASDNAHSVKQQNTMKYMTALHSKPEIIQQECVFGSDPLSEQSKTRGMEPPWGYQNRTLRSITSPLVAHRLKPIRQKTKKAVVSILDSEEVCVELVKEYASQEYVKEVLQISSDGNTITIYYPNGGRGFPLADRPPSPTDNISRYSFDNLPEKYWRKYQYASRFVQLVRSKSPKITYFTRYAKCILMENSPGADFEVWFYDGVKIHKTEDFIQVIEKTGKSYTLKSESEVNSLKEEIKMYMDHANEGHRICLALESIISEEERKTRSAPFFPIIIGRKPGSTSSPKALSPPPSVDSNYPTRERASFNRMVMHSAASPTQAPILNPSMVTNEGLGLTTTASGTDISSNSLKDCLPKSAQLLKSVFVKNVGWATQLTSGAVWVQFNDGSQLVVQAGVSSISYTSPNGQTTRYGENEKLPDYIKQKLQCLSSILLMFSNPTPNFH

Usually IC50 stands for the concentration at which inhibition is half-maximal. Broadly, the EC50 is the concentration at which the effect is half-maximal. High values mean weaker potency, low ones greater potency. Take `O=C1C2=[N+]([O-])[C@H]3CCCC[C@H]3[N+]([O-])=C2c2ccccc21`: the half-maximal inhibitory concentration (IC50) in assay [1] is 5980 nM (active); in assay [3] it was 21500 nM (active); in [4] it was 10200 nM (active); in [5], 2680 nM (active). Besides, the EC50 in assay [2] was > 120000 nM (not active).

Broadly, the Ki is a measure of affinity in units of concentration, obtained from inhibition or displacement. On to `NC1CCC(Nc2nccc(-c3c[nH]c4ncccc34)n2)CC1` (stereo not drawn), for which the Ki was > 1580 nM (inactive) in [6]; 126 nM (active) in [7]; > 1580 nM (inactive) in assay [8]; 25.1 nM (active) in assay [9]; > 2510 nM (inactive) in [10]; 794 nM (active) in [11]. Moreover, the Ki in assay [12] was > 1260 nM (inactive); in assay [13] it was > 631 nM (inactive); in [14], 3.16 nM (active); on Misshapen-like kinase 1, 251 nM (active); in assay [15] it was 501 nM (active); in assay [16], > 2000 nM (inactive). The Ki in assay [17] was 3.98 nM (active); in assay [18], > 3980 nM (inactive); in [19], 6.31 nM (active); in assay [20], 1000 nM (active); in assay [21], 2000 nM (active); in assay [22], 501 nM (active). The Ki in [23] and in assay [24] was 100 nM (active) in each case.

In the case of `COC(C(=O)N1Cc2[nH]nc(NC(=O)c3ccc(N4CCN(C)CC4)cc3)c2C1)c1ccccc1` (stereo not drawn), the results for the Ki in assay [25] and in [26] were > 3980 nM (inactive) and 158 nM (active), respectively.

On to `CC(C)(O)c1cn(-c2ccc3[nH]ncc3c2)nn1`, for which the Ki in assay [27] was 5010 nM (active).
